For assay [1], the target named is Dipeptidyl peptidase 8 (Homo sapiens, UniProt Q6V1X1). Put plainly: Inhibition of human recombinant DPP-8 using H-Gly-Pro-AMC as substrate after 10 mins by fluorescence assay.
Assay [2] has as its target Dipeptidyl peptidase 9 (Homo sapiens, UniProt Q86TI2). Put plainly: Inhibition of human recombinant DPP-9 using H-Gly-Pro-AMC as substrate after 10 mins by fluorescence assay.
Assay [3] can be described thus: Inhibition of ADP-induced platelet aggregation in human platelet-rich plasma at 0.1 mM preincubated for 5 mins followed by ADP-stimulation and measured within 5 mins by Born's turbidimetric analysis relative to control. Conditions: read-out: INH.
Assay [4] in a line: Induction of NO production in pH 7.4 PBS incubated for 1 to 14 hrs under dark conditions and measured every 1 hr for 2 hrs and then every 2 hrs for remaining time by Griess assay. The assay is classed as functional.

The source made the active and inactive calls. The calls are words filed in the database; no cut-off is given here.

Chain of Dipeptidyl peptidase 8 (Q6V1X1 whole entry): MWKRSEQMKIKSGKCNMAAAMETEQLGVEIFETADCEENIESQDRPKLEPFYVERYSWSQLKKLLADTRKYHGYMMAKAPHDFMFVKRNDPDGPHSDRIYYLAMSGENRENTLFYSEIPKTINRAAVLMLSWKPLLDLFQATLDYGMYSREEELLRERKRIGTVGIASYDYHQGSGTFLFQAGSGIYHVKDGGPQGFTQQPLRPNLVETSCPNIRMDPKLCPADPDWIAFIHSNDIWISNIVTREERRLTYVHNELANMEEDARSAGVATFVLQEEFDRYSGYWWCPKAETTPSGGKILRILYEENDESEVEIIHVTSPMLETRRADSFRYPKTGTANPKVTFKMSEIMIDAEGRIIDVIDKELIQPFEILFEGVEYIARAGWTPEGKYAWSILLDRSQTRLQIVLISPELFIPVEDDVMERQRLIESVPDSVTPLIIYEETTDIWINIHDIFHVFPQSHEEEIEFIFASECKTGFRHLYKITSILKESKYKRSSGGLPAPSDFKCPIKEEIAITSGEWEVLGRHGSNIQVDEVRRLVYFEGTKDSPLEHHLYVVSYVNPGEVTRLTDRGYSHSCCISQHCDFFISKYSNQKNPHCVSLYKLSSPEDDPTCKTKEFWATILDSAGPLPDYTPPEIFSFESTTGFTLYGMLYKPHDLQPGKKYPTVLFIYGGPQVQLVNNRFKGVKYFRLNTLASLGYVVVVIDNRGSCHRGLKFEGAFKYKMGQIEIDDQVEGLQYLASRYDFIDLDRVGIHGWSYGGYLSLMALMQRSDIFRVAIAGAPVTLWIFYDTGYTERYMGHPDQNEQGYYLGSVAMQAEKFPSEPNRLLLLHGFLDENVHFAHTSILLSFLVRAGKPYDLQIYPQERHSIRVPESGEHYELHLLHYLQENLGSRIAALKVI
Chain of Dipeptidyl peptidase 9 (Q86TI2 whole entry): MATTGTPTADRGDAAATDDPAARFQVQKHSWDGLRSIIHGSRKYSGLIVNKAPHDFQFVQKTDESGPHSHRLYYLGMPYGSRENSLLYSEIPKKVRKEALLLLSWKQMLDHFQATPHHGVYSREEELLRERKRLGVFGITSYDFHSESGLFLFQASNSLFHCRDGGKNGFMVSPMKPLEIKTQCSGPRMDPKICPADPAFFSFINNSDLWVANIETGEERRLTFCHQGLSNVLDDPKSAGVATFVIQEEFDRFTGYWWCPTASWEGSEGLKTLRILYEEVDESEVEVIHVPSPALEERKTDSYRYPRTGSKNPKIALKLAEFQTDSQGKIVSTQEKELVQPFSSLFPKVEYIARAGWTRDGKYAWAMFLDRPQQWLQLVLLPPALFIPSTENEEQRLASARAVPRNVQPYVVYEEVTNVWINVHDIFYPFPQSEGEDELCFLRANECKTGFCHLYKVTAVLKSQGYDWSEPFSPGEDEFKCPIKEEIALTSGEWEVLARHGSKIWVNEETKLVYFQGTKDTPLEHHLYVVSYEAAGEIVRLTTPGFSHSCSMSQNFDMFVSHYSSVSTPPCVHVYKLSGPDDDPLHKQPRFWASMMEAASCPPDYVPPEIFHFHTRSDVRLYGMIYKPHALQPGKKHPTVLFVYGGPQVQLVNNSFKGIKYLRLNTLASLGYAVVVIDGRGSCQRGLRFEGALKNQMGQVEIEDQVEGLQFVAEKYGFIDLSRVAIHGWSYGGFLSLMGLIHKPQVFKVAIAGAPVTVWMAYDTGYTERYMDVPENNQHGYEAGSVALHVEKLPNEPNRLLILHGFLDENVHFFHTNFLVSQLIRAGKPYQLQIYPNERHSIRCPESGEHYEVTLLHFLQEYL

For the compound `O=C(CO)N[C@@H](CC(=O)N1CCn2c(nnc2C(F)(F)F)C1)Cc1cc(F)c(F)cc1F`, the IC50 in assay [1] and in assay [2] was greater than 100 µM in each case. In addition, in assay [3], the inhibition at 100 µM stood at 3.22%.
For `O=C(CCCO[N+](=O)[O-])N[C@@H](CC(=O)N1CCn2c(nnc2C(F)(F)F)C1)Cc1cc(F)c(F)cc1F`, the IC50 in assay [1] and in assay [2] was greater than 100 µM throughout. Further, the outcome in assay [4] was Active. In assay [3], the inhibition at 100 µM came out at 27.6%.
For the compound `O=C(CO[N+](=O)[O-])N[C@@H](CC(=O)N1CCn2c(nnc2C(F)(F)F)C1)Cc1cc(F)c(F)cc1F`, the IC50 in assay [1] and in assay [2] was greater than 100 µM throughout. Besides, the result in assay [4] was Active. For the same compound, the inhibition at 100 µM in assay [3] is 22.4%.
With `CC(=O)Oc1ccccc1C(=O)O` [ASPIRIN], the inhibition at 100 µM in assay [3] is 26%.
On to `O=C(CCCCO)N[C@@H](CC(=O)N1CCn2c(nnc2C(F)(F)F)C1)Cc1cc(F)c(F)cc1F`, for which the IC50 in assay [1] and in assay [2] was greater than 100 µM throughout. Besides, the inhibition at 100 µM in assay [3] was 2.02%.
For the compound `O=C(CCCCCO[N+](=O)[O-])N[C@@H](CC(=O)N1CCn2c(nnc2C(F)(F)F)C1)Cc1cc(F)c(F)cc1F`, the half-maximal inhibitory concentration (IC50) in assay [1] and in assay [2] was greater than 100 µM throughout. In addition, the outcome in assay [4] was Active. For the same compound, in assay [3], the inhibition at 100 µM is 40.2%.
With `O=C(CCCCO[N+](=O)[O-])N[C@@H](CC(=O)N1CCn2c(nnc2C(F)(F)F)C1)Cc1cc(F)c(F)cc1F`, the IC50 in assay [1] and in assay [2] was greater than 100 µM in each case. In assay [4], the result was Active. Further, the inhibition at 100 µM in assay [3] came to 32.1%.
For the compound `O=C(CCCO)N[C@@H](CC(=O)N1CCn2c(nnc2C(F)(F)F)C1)Cc1cc(F)c(F)cc1F`, the IC50 in assay [1] and in assay [2] was greater than 100 µM throughout. In assay [3], the inhibition at 100 µM is 3.41%.
Regarding `N[C@@H](CC(=O)N1CCn2c(nnc2C(F)(F)F)C1)Cc1cc(F)c(F)cc1F` [SITAGLIPTIN], the inhibition at 100 µM in assay [3] was 4.24%.
With `O=C(CCCCCO)N[C@@H](CC(=O)N1CCn2c(nnc2C(F)(F)F)C1)Cc1cc(F)c(F)cc1F`, the IC50 in assay [1] and in assay [2] was greater than 100 µM throughout. Further, the inhibition at 100 µM in assay [3] was 3.63%.
